Measured values published in patent US12077483B2, “Modified amine lipids” (Intellia Therapeutics, Inc., priority 2018, dated 2024).

Assays:
[1] = pKa of amine lipid by TNS fluorescence; format: physicochemical; settings: probe TNS (6-(p-toluidino)-2-naphthalenesulfonic acid sodium salt), unformulated amine lipid in ethanol, sodium phosphate buffers -9.0
Experimental: The pKa of each amine lipid was determined according to the method in Jayaraman, et al. (Angewandte Chemie, 2012) with the following adaptations. The pKa was determined for unformulated amine lipid in ethanol. Lipid stock solutions (2.94 mM) were diluted into Sodium Phosphate Buffers (0.1 M, Boston Bioproducts) of different pH (pH-range: 4.5-9.0) yielding a final lipid concentration of approx. 100 μM. The test samples were supplemented with TNS {6-(p-Toluidino)-2-naphthalenesulfonic acid sodium salt}, incubated and the fluorescence intensity was measured using excitation and emission wavelengths of 321 nm and 448 nm, respectively. The recorded data were normalized and the respective pKa values were derived from sigmoidal fitting.

[2] = LNP average particle size and polydispersity by dynamic light scattering; format: physicochemical; settings: LNP with the compound as amine lipid
From the text: The LNPs have a size of about 1 to about 1,000 nm, about 10 to about 500 nm, about 20 to about 500 nm, in a sub-embodiment about 50 to about 400 nm, in a sub-embodiment about 50 to about 300 nm, in a sub-embodiment about 50 to about 200 nm, and in a sub-embodiment about 50 to about 150 nm, and in another sub-embodiment about 60 to about 120 nm. Preferably, the LNPs have a size from about 60 nm to about 100 nm. The average sizes (diameters) of the fully formed LNP, may be measured by dynamic light scattering on a Malvern Zetasizer. The LNP sample is diluted in phosphate buffered saline (PBS) so that the count rate is approximately 200-400 kcps. The data is presented as a weighted average of the intensity measure.
In some embodiments, the LNPs have a size of about 75 to about 120 nm. In some embodiments, the LNPs have a size of about 75 to about 100 nm. Unless indicated otherwise, all sizes referred to herein are the average sizes (diameters) of the fully formed nanoparticles, as measured by dynamic light scattering on a Malvern Zetasizer. The nanoparticle sample is diluted in phosphate buffered saline (PBS) so that the count rate is approximately 200-400 kcps. The data is presented as a weighted-average of the intensity measure (Z-average diameter).
Dynamic Light Scattering (“DLS”) is used to characterize the polydispersity index (“pdi”) and size of the LNPs of the present disclosure. DLS measures the scattering of light that results from subjecting a sample to a light source. PDI, as determined from DLS measurements, represents the distribution of particle size (around the mean particle size) in a population, with a perfectly uniform population having a PDI of zero. Electropheretic light scattering is used to characterize the surface charge of the LNP at a specified pH. The surface charge, or the zeta potential, is a measure of the magnitude of electrostatic repulsion/attraction between particles in the LNP suspension. Asymmetric-Flow Field Flow Fractionation—Multi-Angle Light Scattering (AF4-MALS) is used to separate particles in the composition by hydrodynamic radius and then measure the molecular weights, hydrodynamic radii and root mean square radii of the fractionated particles. […] Nanoparticle tracking analysis (NTA, Malvern Nanosight) can be used to determine particle size distribution as well as particle concentration. LNP samples are diluted appropriately and injected onto a microscope slide. A camera records the scattered light as the particles are slowly infused through field of view. After the movie is captured, the Nanoparticle Tracking Analysis processes the movie by tracking pixels and calculating a diffusion coefficient. This diffusion coefficient can be translated into the hydrodynamic radius of the particle. The instrument also counts the number of individual particles counted in the analysis to give particle concentration.
LNP compositions are analyzed for average particle size, polydispersity index (pdi), total RNA content, encapsulation efficiency of RNA, and zeta potential. LNP compositions may be further characterized by lipid analysis, AF4-MALS, NTA, and/or cryo-EM. Average particle size and polydispersity are measured by dynamic light scattering (DLS) using a Malvern Zetasizer DLS instrument. LNP samples were diluted with PBS buffer prior to being measured by DLS. Z-average diameter which is an intensity-based measurement of average particle size was reported along with number average diameter and pdi. A Malvern Zetasizer instrument is also used to measure the zeta potential of the LNP. Samples are diluted 1:17 (50 μL into 800 μL) in 0.1×PBS, pH 7.4 prior to measurement.

[3] = RNA encapsulation efficiency of LNP (Ribogreen fluorescence assay); format: physicochemical; settings: LNP with the compound as amine lipid
Experimental: A fluorescence-based assay (Ribogreen®, ThermoFisher Scientific) is used to determine total RNA concentration and free RNA. Encapsulation efficiency is calculated as (Total RNA—Free RNA)/Total RNA. LNP samples are diluted appropriately with 1× TE buffer containing 0.2% Triton-X 100 to determine total RNA or 1× TE buffer to determine free RNA. Standard curves are prepared by utilizing the starting RNA solution used to make the compositions and diluted in 1× TE buffer+/−0.2% Triton-X 100. Diluted RiboGreen® dye (according to the manufacturer's instructions) is then added to each of the standards and samples and allowed to incubate for approximately 10 minutes at room temperature, in the absence of light. A SpectraMax M5 Microplate Reader (Molecular Devices) is used to read the samples with excitation, auto cutoff and emission wavelengths set to 488 nm, 515 nm, and 525 nm respectively. Total RNA and free RNA are determined from the appropriate standard curves.
Encapsulation efficiency is calculated as (Total RNA−Free RNA)/Total RNA. The same procedure may be used for determining the encapsulation efficiency of a DNA-based cargo component. For single-strand DNA, Oligreen Dye may be used and for double-strand DNA, Picogreen Dye.

[4] = test system: mouse TTR; assay: Serum TTR ELISA in mice after LNP delivery; format: in vivo; settings: mouse serum, relative to TSS control of same experiment
Experimental: For studies measuring in vivo editing in liver, CD-1 female mice were dosed at 0.1 mpk unless otherwise noted. Animals were euthanized at 6 or 7 days by exsanguinationvia cardiac puncture under isoflourane anesthesia. Liver tissue was collected from each animal for DNA extraction and analysis. Blood was collected into serum separator tubes or into tubes containing buffered sodium citrate for plasma as described herein. Cohorts of mice were measured for editing by Next-Generation Sequencing (NGS).
Blood was collected and the serum was isolated as indicated. The total mouse TTR serum levels were determined using a Mouse Prealbumin (Transthyretin) ELISA Kit (Aviva Systems Biology, Cat. OKIA00111). Briefly, sera were serial diluted with kit sample diluent, e.g. to a final dilution of 10,000-fold and/or 2,500-fold. The diluted sample was then added to the ELISA plates and the assay was then carried out according to directions. Serum TTR data from treatment groups are expressed as a percentage of vehicle control levels.

[5] = Expt. 2, composition ratio (mol %) 50/9/39.5/3 for Cmpnd 49, 50/9/39.5/1.5 for the others
[6] = Expt. 8, composition ratio (mol %) 50/9/38/3 for Cmpnd 49, 50/10/38.5/1.5 for the others
[7] = Expt. 1, composition ratio (mol %) 50/9/38/3 for Cmpnd 49, 50/10/38.5/1.5 for the others
[8] = Expt. 6, composition ratio (mol %) 50/9/38/3 for Cmpnd 49, 50/10/38.5/1.5 for the others
[9] = Expt. 10, composition ratio (mol %) 50/9/38/3 for Cmpnd 49, 50/10/38.5/1.5 for the others

Row | SMILES | pKa [1] | Serum TTR % TSS ([4]; dose 0.03 mpk) [% TSS] | Serum TTR % TSS ([4]; dose 0.1 mpk) [% TSS] | Num Ave Size (nm) [2, 7] [nm] | PDI [2, 7] | Z-Ave Size (nm) [2, 7] [nm] | Encapsulation (%) [3, 7] [%] | further results
1 | CCCCC/C=C\C/C=C\CCCCCCCC(=O)OCC(COC(=O)CCCCCCC/C=C\C/C=C\CCCCC)OC(=O)CCC(CCCCCC)OC(=O)NCC1CCCN1C (stereo not shown) [Compound 44, 2-((4-((((1-methylpyrrolidin-2-yl)methyl)carbamoyl)oxy)decanoyl)oxy)propane-1,3-diyl (9Z,9′Z,12Z,12′Z)-bis(octadeca-9,12-dienoate)] | 6.45 | 119.97 | 78.79 | – | – | – | – | Num Ave Size (nm) [2, 5]: 78.34 nm; PDI [2, 5]: 0.034; Z-Ave Size (nm) [2, 5]: 97.65 nm; Num Ave Size (nm) [2, 6]: 85.76 nm; PDI [2, 6]: 0.034; Z-Ave Size (nm) [2, 6]: 104.3 nm; Encapsulation (%) [3, 5]: 99%; Encapsulation (%) [3, 6]: 99%
2 | CCCCC/C=C\C/C=C\CCCCCCCC(=O)OCC(COC(=O)CCCCCCC/C=C\C/C=C\CCCCC)OC(=O)CC(CCCCCCCC)OC(=O)NCCN(C)CC (stereo not shown) [Compound 52, 2-((3-(((2-(ethyl(methyl)amino)ethyl)carbamoyl)oxy)undecanoyl)oxy)propane-1,3-diyl (9Z,9′Z,12Z,12′Z)-bis(octadeca-9,12-dienoate)] | 6.26 | – | 17.31 | 74.35 | 0.03 | 90.75 | 98 | –
3 | CCCCC/C=C\C/C=C\CCCCCCCC(=O)OCC(COC(=O)CCCCCCC/C=C\C/C=C\CCCCC)COC(=O)CC(CCCCCCCC)OC(=O)NCCN(C)CC (stereo not shown) [Compound 53, 2-(11-methyl-5-octyl-3,7-dioxo-2,6-dioxa-8,11-diazatridecyl)propane-1,3-diyl (9Z,9′Z,12Z,12′Z)-bis(octadeca-9,12-dienoate)] | 6.29 | – | 13.97 | 75.76 | 0.05 | 92.99 | 99 | –
4 | CCCCC/C=C\C/C=C\CCCCCCCC(=O)OCC(COC(=O)CCCCCCC/C=C\C/C=C\CCCCC)COC(=O)CCCC(CCCCCCCC)OC(=O)NCCN(C)CC (stereo not shown) [Compound 55, 2-(13-methyl-7-octyl-3,9-dioxo-2,8-dioxa-10,13-diazapentadecyl)propane-1,3-diyl (9Z,9′Z,12Z,12′Z)-bis(octadeca-9,12-dienoate)] | 6.43 | – | 72.79 | 99.29 | 0.02 | 117.30 | 97 | –
5 | CCCCCCCCCCOC(=O)CCCCCCCC(=O)OCC(COC(=O)CCCCCCCC(=O)OCCCCCCCCCC)OC(=O)CCC(CCCCCCCC)OC(=O)NCCN(C)CC (stereo not shown) [Compound 57, 9,9′-didecyl O′1,O1-(2-((4-(((2-(ethyl(methyl)amino)ethyl)carbamoyl)oxy)dodecanoyl)oxy)propane-1,3-diyl) di(nonanedioate)] | 6.18 | – | 24.58 | 83.73 | 0.02 | 100.40 | 98 | –
6 | CCCCC/C=C\C/C=C\CCCCCCCC(=O)OCC(COC(=O)CCCCCCC/C=C\C/C=C\CCCCC)OC(=O)CC[C@@H](CCCCCCCC)OC(=O)NCCN(C)CC [Compound 87, 2-(((R)-4-(((2-(ethyl(methyl)amino)ethyl)carbamoyl)oxy)dodecanoyl)oxy)propane-1,3-diyl (9Z,9′Z,12Z,12′Z)-bis(octadeca-9,12-dienoate)] | – | 80.21 | 33.33 | – | – | – | – | Num Ave Size (nm) [2, 8]: 63 nm; PDI [2, 8]: 0.06; Z-Ave Size (nm) [2, 8]: 83.00 nm; Encapsulation (%) [3, 8]: 98%
7 | CCCCC/C=C\C/C=C\CCCCCCCC(=O)OCC(COC(=O)CCCCCCC/C=C\C/C=C\CCCCC)OC(=O)CC[C@H](CCCCCCCC)OC(=O)NCCN(C)CC [Compound 88, 2-(((S)-4-(((2-(ethyl(methyl)amino)ethyl)carbamoyl)oxy)dodecanoyl)oxy)propane-1,3-diyl (9Z,9′Z,12Z,12′Z)-bis(octadeca-9,12-dienoate)] | – | 75.06 | 33.45 | – | – | – | – | Num Ave Size (nm) [2, 8]: 73 nm; PDI [2, 8]: 0.02; Z-Ave Size (nm) [2, 8]: 88.00 nm; Encapsulation (%) [3, 8]: 98%
8 | CCCCC/C=C\C/C=C\CCCCCCCC(=O)OCC(COC(=O)CCCCCCC/C=C\C/C=C\CCCCC)OC(=O)CCC(CCCCCCCC)OC(=O)NCCN1CCCCC1 (stereo not shown) [Compound 94, 2-((4-(((2-(piperidin-1-yl)ethyl)carbamoyl)oxy)dodecanoyl)oxy)propane-1,3-diyl (9Z,9′Z,12Z,12′Z)-bis(octadeca-9,12-dienoate)] | 5.8 | – | – | – | – | – | – | Num Ave Size (nm) [2, 9]: 53 nm; PDI [2, 9]: 0.06; Z-Ave Size (nm) [2, 9]: 70 nm; Encapsulation (%) [3, 9]: 98%
9 | CCCCC/C=C\C/C=C\CCCCCCCC(=O)OCC(COC(=O)CCCCCCC/C=C\C/C=C\CCCCC)COC(=O)C(C)(C)C(CCCCCCCC)OC(=O)NCCN(C)CC (stereo not shown) [Compound 99, 2-(4,4,11-trimethyl-5-octyl-3,7-dioxo-2,6-dioxa-8,11-diazatridecyl)propane-1,3-diyl (9Z,9′Z,12Z,12′Z)-bis(octadeca-9,12-dienoate)] | 5.96 | 92.42 | 42.87 | – | – | – | – | –
